From patent US6451790B1, “Azadioxacycloalkenes and their use for combating harmful fungi and animal pests” (BASF Aktiengesellschaft, priority 1999, dated 2002)

What was measured:
Type in all cases: in vivo
[1] = test system: Puccinia recondita; test: Curative action against Puccinia recondita on wheat (wheat leaf rust); conditions: 16 ppm, curative spray 1 day after inoculation, wheat 'Kanzler', 7 days; untreated 100%
[2] = test system: Botrytis cinerea; test: Action against Botrytis cinerea on bell pepper leaves; conditions: 250 ppm, spray 1 day before inoculation, bell pepper seedlings, after 5 days; untreated 80%
Text: The active compounds, separately or together, were formulated as a 10% emulsion in a mixture of 70% by weight of cyclohexanone, 20% by weight of Nekanil® LN (Lutensol® AP6, wetting agent having emulsifying and dispersant action based on ethoxylated alkylphenols) and 10% by weight of Wettol® EM (nonionic emulsifier based on ethoxylated castor oil) and diluted with water to the desired concentration.
Bell pepper seedlings of the variety “Neusiedler Ideal Elite” were, after 4 to 5 leaves were well developed, sprayed to run-off point with an aqueous active compound formulation which had been made up from a stock solution consisting of 10% of active compound, 63% of cyclohexanone and 27% of emulsifier. The next day, the treated plants were inoculated with a spore suspension of Botrytis cinerea which contained 1.7×10^6 spores/ml in an aqueous 2% strength biomalt solution. The test plants were subsequently placed in a climatized chamber at 22-24° C. and high atmospheric humidity. After 5 days, the extent of the fungal infection on the leaves could be determined visually in %.

[3] = test system: Pyricularia oryzae; conditions: 16 ppm, protective spray 1 day before inoculation, rice 'Tai-Nong 67', 6 days; untreated 90%

| SMILES | infection (extent of rust fungus development on the leaves) [1] | infection (extent of fungal infection on the leaves) [2] [%] | infection (extent of development of the disease on the leaves) [3] [%] |
| --- | --- | --- | --- |
| CO/N=C(/C(=O)OC)c1ccccc1COc1ccn(-c2ccc(Cl)cc2)n1 [Compound A] | 60% | 40 | – |
| CO/N=C(/C1=NOCCO1)c1ccccc1COc1ccn(-c2ccc(Cl)cc2)n1 [Compound I-1, (ortho-[1-{4-chlorophenyl}-pyrazol-3-yl-oxymethyl]-phenyl)(5,6-dihydro-[1,4,2]dioxazin-3-yl)methanone O-methyl oxime] | no infection | 3 | 10 |
| CO/N=C(/C1=NOCCO1)c1ccccc1COc1ccccc1C [Compound B] | 90% | – | 40 |
